Source: PubChem BioAssay (NCI)
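Where inhibition never reached the appropriate level, the endpoint shown equals the highest concentration tested. Otherwise, values were interpolated linearly from a five-concentration, 48-hour dose response in 96-well plates. At the TGI there is no net growth.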

Columns and labels:
Assay in all cases: inhibition of tumour cell growth, NCI panel, 48 h
OVCAR-5 ovarian = test system: OVCAR-5 ovarian
CCRF-CEM leukemia = test system: CCRF-CEM leukemia
SF-268 CNS = test system: SF-268 CNS
IGROV1 ovarian = test system: IGROV1 ovarian
SK-MEL-28 melanoma = test system: SK-MEL-28 melanoma
CAKI-1 renal = test system: CAKI-1 renal
MDA-N = test system: MDA-N
HT29 colon = test system: HT29 colon
A498 renal = test system: A498 renal
MOLT-4 leukemia = test system: MOLT-4 leukemia
NCI-H23 lung = test system: NCI-H23 lung
SF-295 CNS = test system: SF-295 CNS
M14 melanoma = test system: M14 melanoma
UACC-62 melanoma = test system: UACC-62 melanoma
SNB-75 CNS = test system: SNB-75 CNS
NCI-H226 lung = test system: NCI-H226 lung
LOX IMVI melanoma = test system: LOX IMVI melanoma
HOP-92 NSCLC = test system: HOP-92 NSCLC
SN12C renal = test system: SN12C renal
SK-MEL-5 melanoma = test system: SK-MEL-5 melanoma

| SMILES | TGI (OVCAR-5 ovarian) [µM] | TGI (CCRF-CEM leukemia) [µM] | TGI (SF-268 CNS) [µM] | TGI (IGROV1 ovarian) [µM] | TGI (SK-MEL-28 melanoma) [µM] | TGI (CAKI-1 renal) [µM] | TGI (MDA-N) [µM] | TGI (HT29 colon) [µM] | TGI (A498 renal) [µM] | TGI (MOLT-4 leukemia) [µM] | TGI (NCI-H23 lung) [µM] | TGI (SF-295 CNS) [µM] | TGI (M14 melanoma) [µM] | TGI (UACC-62 melanoma) [µM] | TGI (SNB-75 CNS) [µM] | TGI (NCI-H226 lung) [µM] | TGI (LOX IMVI melanoma) [µM] | TGI (HOP-92 NSCLC) [µM] | TGI (SN12C renal) [µM] | TGI (SK-MEL-5 melanoma) [µM] |
| --- | --- | --- | --- | --- | --- | --- | --- | --- | --- | --- | --- | --- | --- | --- | --- | --- | --- | --- | --- | --- |
| COc1cc([C@@]23OC[C@@H]4[C@@H](OC[C@@H]42)c2cc4c(cc23)OCO4)cc(OC)c1OC | > 100 | > 100 | > 100 | > 100 | > 100 | > 100 | > 100 | > 100 | 15.1 | > 100 | > 100 | > 100 | > 100 | > 100 | > 100 | – | – | – | – | – |
| Cc1cnc2c(c1)C(=O)C1=C(OC(C)(C)CC1O)C2=O (centres undefined) | > 100 | 51.1 | 37.2 | 28.9 | 31.1 | – | – | 43.6 | – | 44.3 | 26.2 | 26.6 | 30.5 | 12.6 | 28.5 | 37.5 | 25.8 | 30.5 | 29.8 | 26.9 |
| COC1=CC(=O)c2c(c(COP(=O)(N(C)CCBr)N(C)CCBr)cn2C)C1=O | 0.564 | 1.78 | 1.75 | 3.93 | 0.33 | 0.377 | 0.274 | 0.222 | 0.964 | > 100 | 2.06 | 0.366 | 0.259 | 0.272 | 0.442 | – | 3.56 | – | 0.371 | 0.328 |
| CCN(CC)c1ccc2cc(-c3nnc(-c4ccccc4O)o3)c(=O)oc2c1 | 35 | 8.63 | 28.3 | 13.9 | 32.3 | 25.3 | 30.7 | 26.3 | 29.6 | 25.9 | 24.8 | 29.7 | 24.3 | 23.4 | – | – | 20.1 | – | – | 25.2 |
| NCCCCC(=O)c1cccnc1 | > 100 | > 100 | > 100 | > 100 | > 100 | > 100 | – | > 100 | > 100 | > 100 | > 100 | > 100 | > 100 | > 100 | – | – | > 100 | > 100 | – | > 100 |
| CC(=O)C(CN(C)C)C(c1ccccc1)c1c(O)c2ccccc2oc1=O (centres undefined) | > 100 | > 100 | > 100 | > 100 | > 100 | > 100 | – | > 100 | – | > 100 | > 100 | > 100 | > 100 | > 100 | 88.5 | > 100 | > 100 | > 100 | > 100 | > 100 |
| Cc1nc2ccc(NC3OC(CO)C(O)C(O)C3O)cc2c(=O)n1-c1ccccc1 (centres undefined) | > 100 | – | > 100 | > 100 | > 100 | > 100 | > 100 | > 100 | > 100 | > 100 | > 100 | > 100 | – | > 100 | > 100 | > 100 | > 100 | – | > 100 | > 100 |
| COc1ccc(/C=C/C(=O)CC(=O)/C=C/c2ccc(OC)cc2)cc1 | > 100 | 54.9 | > 100 | > 100 | > 100 | > 100 | > 100 | > 100 | – | 70.8 | 95.1 | > 100 | > 100 | > 100 | > 100 | > 100 | 25.1 | – | > 100 | > 100 |
| CN(C)CCn1c(=O)c2ccc3c4c(nn3CCN(C)C)c3cc([N+](=O)[O-])ccc3n(c1=O)c24 | 0.448 | 0.417 | 0.942 | 4.5 | 2.93 | 0.275 | 0.243 | – | 1.68 | – | 0.397 | 1.05 | 1.29 | 0.952 | – | 2.35 | 1.16 | – | 0.429 | 1.98 |
| Cc1ccc(N2CCN(CCC(=O)O)CC2)cc1 | > 100 | > 100 | > 100 | > 100 | > 100 | > 100 | – | > 100 | > 100 | – | > 100 | > 100 | > 100 | > 100 | > 100 | > 100 | > 100 | > 100 | > 100 | > 100 |
